pEC50: −log10 of the molar value.
Columns and labels:
2871 receptor [1] = target: T1, 2871 receptor (Homo sapiens, UniProt Q9BY21); test: FLIPR calcium mobilization screening of 2871 receptor-transfected cells; format: cell-based; conditions: HEK293G16 cells stably transfected with 2871 receptor protein; for calcium mobilization response: concentration response; for pEC50: calcium mobilization
T1 construct: encodes a full length 2871 receptor protein; myc (on only one of the two constructs made); expressed in transfected cells
Method: The 2871 receptor proteins were expressed in either human embryonic kidney 293 (HEK293) cells or CHO cells, both of which were stably transfected with cDNA encoding the promiscuous G-protein Gal6. A pEF6 vector (invitrogene) including a cDNA of 2871 comprising only the open reading frame (ORF) or 5′-myc tagged ORF was constructed. Cells were transfected with individual construct by lipofectamine (GIBCO) and selected in the presence of 20 ug/ml Blasticidine. After 3 weeks of selection, drug resistant cells were subcloned to obtain individual clones by limited dilution. To isolate cell lines stably expressing the 2871 receptor protein, about 48 clones were typically selected and analyzed. The expression level for myc-tagged 2871 on individual clones was evaluated by using anti-myc Ab staining and FACScan analysis. The expression level for un-tagged 2871 was evaluated by mRNA analysis using standard Taqman techniques and comparing with mRNA expression of myc-tagged 2871 clones. HEK293G16 or CHOG16 cells transfected with the vector alone serve as negative controls. The clones with the highest expression of 2871 as well as good morphology and growth were used for the screening experiments.
The functional screening procedure involves the use of transfected mammalian cells (CHO, HEK293, RBL, L1.2 etc.) containing a cDNA encoding the 2871 peptides to express the receptor on the cell surface. The cells were loaded with a calcium dependent dye such as fura 2 that produces a fluorescent signal when bound to calcium.
Cells were bound to a receptor agonist, such as Ap6A. Any change in fluorescent signal was measured over a defined period of time using a Fluorescence Imaging Plate Reader (FLIPR) (See Sullivan E, et al. Measurement of [Ca^2+] using the Fluorometric Imaging Plate Reader (FLIPR). Methods Mol Biol 1999;114:125-133.)
Cells were exposed to putative ligands and/or modulators and evaluated for agonist induced calcium mobilization. Cell lines transfected with vector alone served as negative controls in the same screening procedures for agents initially identified as putative ligands and/or modulators.
(§1) 2871 receptor-transfectants (IIEK293 (60,000 cells/well) or CHO cells (30,000 cells/well)) were seeded into poly-D-lysine-coated 96-well black-wall, clear-bottom microtiter plates 24 hours prior to assay. Cells were loaded for 1 hour with 2 μM Fluo-3-AM fluorescent indicator dye (Molecular Probes) in assay buffer (Hank's balanced salt solution, 10 mM HEPES, 0.1% BSA, 2.5 mM probenecid), washed three times with assay buffer, and then applied to FLIPR for analysis.
Bio-active lipids were screened at final concentration of 200 nM and 1 μM. Nucleotides were screened at final concentration of 1 μM and 2 μM. The ratio of net change (maximum subtracting minimum) in fluorescence over baseline was used to determine agonist response. Positive responses were confirmed by checking original raw responsive curve.
Concentration response curve data were fitted by Graphpad Prism 2.1 (Graphpad software, Inc., San Diego).

2871 receptor [2] = target: T1, 2871 receptor; test: Desensitization of calcium mobilization response by sequential adenosine nucleotide treatment (FLIPR); format: cell-based; conditions: for desensitization of calcium mobilization response to subsequent adenosine nucleotide treatment: additional treatment five to six minutes after initial dose
Method: as §1
Furthermore, calcium mobilization response was selectively desensitized treatment with adenosine nucleotide was followed by subsequent treatment with additional adenosine nucleotide. Initial treatment with adenosine nucleotide was followed by additional treatment five to six minutes after initial dose. Treatment and data analysis were as described supra.

T1 sequence (Q9BY21 whole entry): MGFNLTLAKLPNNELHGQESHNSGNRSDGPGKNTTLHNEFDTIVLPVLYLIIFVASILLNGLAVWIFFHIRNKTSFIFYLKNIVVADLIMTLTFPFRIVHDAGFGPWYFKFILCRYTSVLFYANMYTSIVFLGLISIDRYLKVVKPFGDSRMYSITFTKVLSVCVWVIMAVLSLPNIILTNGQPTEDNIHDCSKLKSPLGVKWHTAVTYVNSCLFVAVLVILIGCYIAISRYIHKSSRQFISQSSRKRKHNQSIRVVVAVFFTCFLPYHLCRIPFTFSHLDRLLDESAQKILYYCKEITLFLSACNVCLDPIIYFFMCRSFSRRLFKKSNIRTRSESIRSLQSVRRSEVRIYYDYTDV

| Compound | calcium mobilization response (2871 receptor [1]) | pEC50 (2871 receptor [1]) | desensitization of calcium mobilization response to subsequent adenosine nucleotide treatment (2871 receptor [2]) | agonist activity after initial AMP treatment (2871 receptor [2]; second treatment five to six minutes after initial AMP dose) |
| --- | --- | --- | --- | --- |
| Nc1ncnc2c1ncn2[C@@H]1O[C@H](COP(=O)(O)OP(=O)(O)O[C@H]2O[C@H](CO)[C@@H](O)[C@H](O)[C@@H]2O)[C@@H](O)[C@H]1O [ADP-mannose] | dose-dependent |  |  |  |
| Nc1ncnc2c1ncn2C1OC(COP(=O)(O)OP(=O)(O)OCC2OC(O)C(O)C2O)C(O)C1O (stereo not shown) [ADP-ribose, adenosine di-phosphate-ribose] | dose-dependent | 6.10 to 6.40 |  |  |
| Nc1ncnc2c1ncn2[C@@H]1O[C@H](COP(=O)(O)O)[C@@H](O)[C@H]1O [AMP, adenosine monophosphate] | dose-dependent | 6.10 to 6.30 | conferred desensitization to subsequent AMP treatment |  |
| Nc1ncnc2c1ncn2[C@@H]1O[C@H](COP(=O)(O)OP(=O)(O)OC[C@H]2O[C@@H](n3cnc4c(N)ncnc43)[C@H](O)[C@@H]2O)[C@@H](O)[C@H]1O [AP2A] | dose-dependent |  |  |  |
| Nc1ncnc2c1ncn2[C@@H]1O[C@H](COP(=O)(O)OP(=O)(O)OP(=O)(O)OC[C@H]2O[C@@H](n3cnc4c(N)ncnc43)[C@H](O)[C@@H]2O)[C@@H](O)[C@H]1O [AP3A] | dose-dependent |  |  |  |
| di-adenosine hexaphosphate [AP6A] | dose-dependent | 6.40 to 6.70 | effectively desensitized 2871 receptor to subsequent treatment with either AP6A or AMP | retained agonist activity |
| di-adenosine pentaphosphate [AP5A] | dose-dependent | 5.74 to 5.92 |  |  |
| di-adenosine tetraphosphate [AP4A] | dose-dependent | 5.70 to 5.74 |  |  |
